Data on 15 compounds can be found in patent publication US9320278B2, “Methods of controlling insects” (Syngenta Participations AG, priority 2012, dated 2016).

The experiment concerns Anthonomus grandis (Cotton Boll Weevil). Briefly: Anthonomus grandis (Cotton Boll Weevil) test on treated cotton plants, mortality. The format is in vivo. The protocol: Anthonomus grandis (Cotton Boll Weevil)
Cotton plants are treated (100 mL spray volume) and 10 adult weevils are added to each plant (2 replicates per concentration). 5 days after infestation the mortality is assessed.
Compounds are tested according to the above method.

Setting [1] is: application rate 0.2 ppm, treated cotton plants, 10 adult weevils per plant, mortality 5 days after infestation.
[2] abbreviates: application rate 0.8 ppm, treated cotton plants, 10 adult weevils per plant, mortality 5 days after infestation.
Where [3] appears, read: application rate 3 ppm, treated cotton plants, 10 adult weevils per plant, mortality 5 days after infestation.
Where [4] appears, read: application rate 12.5 ppm, treated cotton plants, 10 adult weevils per plant, mortality 5 days after infestation.
[5] abbreviates: application rate 50 ppm, treated cotton plants, 10 adult weevils per plant, mortality 5 days after infestation.
The mark [6] stands for this setting: application rate 0.01 ppm, treated cotton plants, 10 adult weevils per plant, mortality 5 days after infestation.
Setting [7] is: application rate 0.05 ppm, treated cotton plants, 10 adult weevils per plant, mortality 5 days after infestation.
Setting [8] is: comparative example, application rate 0.8 ppm, Anthonomus grandis (Cotton boll weevil).
The mark [9] stands for this setting: comparative example, application rate 3 ppm, Anthonomus grandis (Cotton boll weevil).
Where [10] appears, read: comparative example, application rate 12.5 ppm, Anthonomus grandis (Cotton boll weevil).

As for `Cc1cc(C2=NOC(c3cc(Cl)c(Cl)c(Cl)c3)(C(F)(F)F)C2)ccc1C(=O)NC1CON(CC(F)(F)F)C1=O` (mixture of isomers) [Compound A1], the Control/% reads like this: under setting [1], 45%; under setting [2], 90%; under setting [3], 100%; under setting [4], 100%; under setting [5], 95%.
On to `Cc1cc(C2=NOC(c3cc(Cl)cc(Cl)c3)(C(F)(F)F)C2)ccc1C(=O)NC1CON(C)C1=O` (mixture of isomers) [Compound A2], for which the Control/% by setting is: under setting [1], 45%; under setting [2], 80%; under setting [3], 100%; under setting [4], 100%; under setting [5], 100%.
The compound `CCN1OCC(NC(=O)c2ccc(C3=NOC(c4cc(Cl)c(F)c(Cl)c4)(C(F)(F)F)C3)cc2C)C1=O` (mixture of isomers) [Compound A5] showed a Control/% under setting [1] of 40%; a Control/% under setting [2] of 40%; a Control/% under setting [3] of 95%; a Control/% under setting [4] of 100%; a Control/% under setting [5] of 100%.
Turning to `Cc1cc(C2=NOC(c3cc(Cl)cc(Cl)c3)(C(F)(F)F)C2)ccc1C(=O)NC1CON(CC(F)F)C1=O` (mixture of isomers) [Compound A6], the Control/% reads like this: under setting [6], 35%; under setting [7], 50%; under setting [1], 95%; under setting [2], 100%; under setting [3], 100%.
With `Cc1cc(C2=NOC(c3cc(Cl)cc(Cl)c3)(C(F)(F)F)C2)ccc1C(=O)NC1CON(CC(F)(F)F)C1=O` (mixture of isomers) [Compound A8], the Control/% was determined as 20% under setting [6]; 35% under setting [7]; 70% under setting [1]; 100% under setting [2]; 100% under setting [3].
On to `CCN1OCC(NC(=O)c2ccc(C3=NOC(c4cc(Cl)cc(Cl)c4)(C(F)(F)F)C3)cc2C)C1=O` (mixture of isomers) [Compound A9], for which the Control/% amounted to 25% under setting [1]; 15% under setting [2]; 75% under setting [3]; 100% under setting [4]; 100% under setting [5].
Take `Cc1cc(C2=NOC(c3cc(Cl)cc(Cl)c3)(C(F)(F)F)C2)ccc1C(=O)NC1CON(CC(F)(F)F)C1=O` (mixture of isomers) [Compound A21]: the Control/% runs as follows: under setting [1], 70%; under setting [4], 100%; under setting [5], 100%.
As for `Cc1cc(C2=NO[C@@](c3cc(Cl)cc(Cl)c3)(C(F)(F)F)C2)ccc1C(=O)N[C@H]1CON(CC(F)(F)F)C1=O` [Compound A3], the Control/% amounted to 60% under setting [1]; 60% under setting [2]; 100% under setting [3]; 100% under setting [4]; 100% under setting [5].
As for `Cc1cc(C2=NO[C@@](c3cc(Cl)cc(Cl)c3)(C(F)(F)F)C2)ccc1C(=O)N[C@@H]1CON(CC(F)(F)F)C1=O` [Compound A16], the Control/% under setting [6] is reported as 0%; the Control/% under setting [7] amounted to 55%; the Control/% under setting [1] was determined as 100%; the Control/% under setting [2] stood at 100%; the Control/% under setting [3] is 100%.
For the compound `CCN1OC[C@@H](NC(=O)c2ccc(C3=NO[C@@](c4cc(Cl)cc(Cl)c4)(C(F)(F)F)C3)cc2C)C1=O` [Compound A17], the Control/% is 20% under setting [1]; 50% under setting [2]; 100% under setting [3]; 100% under setting [4]; 100% under setting [5].
In the case of `CCN1OC[C@@H](NC(=O)c2ccc(C3=NO[C@@](c4cc(Cl)cc(C(F)(F)F)c4)(C(F)(F)F)C3)c3ccccc23)C1=O` [Compound A18], the Control/% was determined as 0% under setting [1]; 40% under setting [2]; 30% under setting [3]; 35% under setting [4]; 100% under setting [5].
Take `CCN1OC[C@@H](NC(=O)c2ccc(C3=NO[C@@](c4cc(Cl)c(F)c(Cl)c4)(C(F)(F)F)C3)cc2Cl)C1=O` [Compound A19]: the Control/% reads like this: under setting [1], 60%; under setting [2], 30%; under setting [3], 85%; under setting [4], 95%; under setting [5], 100%.
In the same order, the values of `CCN1OC[C@@H](NC(=O)c2ccc(C3=NO[C@@](c4cc(Cl)c(F)c(Cl)c4)(C(F)(F)F)C3)cc2C)C1=O` [Compound A20] are 15%, 60%, 100%, 100% and 100%.
`Cc1cc(C2=NOC(c3cc(Cl)cc(Cl)c3)(C(F)(F)F)C2)ccc1C(=O)N[C@@H]1CON(CC(F)(F)F)C1=O` (stereo partly drawn) [Compound of the invention]: the Control/% by setting is: under setting [8], 100%; under setting [9], 100%; under setting [10], 100%.
For the compound `Cc1cc(C2=NOC(c3cc(Cl)cc(Cl)c3)(C(F)(F)F)C2)ccc1C(=O)N[C@@H]1CON(Cc2ccccc2)C1=O` (stereo partly drawn) [Reference compound, reference compound], the Control/% under setting [8] was 10%, the Control/% under setting [9] worked out at 30% and the Control/% under setting [10] was 30%.
